The test system of one data set is HepG2. The data set can be described thus: Antiproliferative activity against human HepG2 cells assessed as inhibition of cell proliferation incubated for 72 hrs by MTT assay. To be noted: HepG2, 72 h. The format is functional, cell-based. On the technique in general: Formazan colour is commonly taken as a measure of viable cells.
The subject of the next data set is MCF7. The data set can be described thus: Antiproliferative activity against human MCF7 cells assessed as inhibition of cell proliferation incubated for 72 hrs by MTT assay. Particulars: MCF7, 72 h. Type of data set: functional, cell-based.
Another data set deals with HCT-116. In words: Antiproliferative activity against human HCT-116 cells assessed as inhibition of cell proliferation incubated for 72 hrs by MTT assay. To be noted: HCT-116, 72 h. Type of data set: functional, cell-based.
The subject of the next data set is U-251. In words: Antiproliferative activity against human U-251 cells assessed as inhibition of cell proliferation incubated for 72 hrs by MTT assay. Type of data set: functional, cell-based. To be noted: U-251, 72 h.
The test system of data set [1] is HGC-27. In words: Antiproliferative activity against human HGC-27 cells assessed as inhibition of cell proliferation incubated for 72 hrs by MTT assay. The format is functional, cell-based. To be noted: HGC-27, 72 h.
Data set [2] concerns AGS. The data set can be described thus: Antiproliferative activity against human AGS cells assessed as inhibition of cell proliferation incubated for 72 hrs by MTT assay. The format is functional, cell-based.
Another data set has as its system BGC-823. In words: Antiproliferative activity against human BGC-823 cells assessed as inhibition of cell proliferation incubated for 72 hrs by MTT assay. Type of data set: functional, cell-based. Particulars: BGC-823, 72 h.
Another data set relates to SGC-7901. The data set can be described thus: Antiproliferative activity against human SGC-7901 cells assessed as inhibition of cell proliferation incubated for 72 hrs by MTT assay. The format is functional, cell-based. To be noted: SGC-7901, 72 h.
Another data set deals with A549. In words: Antiproliferative activity against human A549 cells assessed as inhibition of cell proliferation incubated for 72 hrs by MTT assay. To be noted: A549, 72 h. The format is functional, cell-based.
A further data set concerns B16-F10. The data set can be described thus: Antiproliferative activity against mouse B16-F10 cells assessed as inhibition of cell proliferation incubated for 72 hrs by MTT assay. Type of data set: functional, cell-based. To be noted: B16-F10, 72 h.
The nature of data set [3]: Antiproliferative activity against human LO2 cells assessed as inhibition of cell proliferation incubated for 72 hrs by MTT assay. Type of data set: toxicity, cell-based, L02.
Data set [4] in a line: Selectivity index, ratio of IC50 for antiproliferative activity against human LO2 cells to IC50 for antiproliferative activity against human HGC-27 cells. The format is toxicity, cell-based. To be noted: LO2 cells and HGC-27 cells, read-out: Ratio IC50.
Data set [5] is described as follows: Selectivity index, ratio of IC50 for antiproliferative activity against human LO2 cells to IC50 for antiproliferative activity against human AGS cells. To be noted: LO2 cells and AGS cells, read-out: Ratio IC50. The format is cell-based.
Data set [6] concerns HGC-27. In words: Induction of apoptosis in human HGC-27 cells assessed as viable cells at 0.1 uM incubated for 48 hrs by annexin V-FITC and PI staining based flow cytometry analysis (reference value: 91.8%). Type of data set: functional. Particulars: read-out: Activity. Background: A flow cytometer gives signals particle by particle.
Data set [7] has as its system HGC-27. In words: Induction of apoptosis in human HGC-27 cells assessed as early apoptotic cells at 0.1 uM incubated for 48 hrs by annexin V-FITC and PI staining based flow cytometry analysis (reference value: 3.13%). Type of data set: functional.
Data set [8] concerns HGC-27. The data set can be described thus: Induction of apoptosis in human HGC-27 cells assessed as late apoptotic cells at 0.1 uM incubated for 48 hrs by annexin V-FITC and PI staining based flow cytometry analysis (reference value: 5.02%). The format is functional.
The test system of data set [9] is HGC-27. In words: Induction of apoptosis in human HGC-27 cells assessed as necrotic cells at 0.1 uM incubated for 48 hrs by annexin V-FITC and PI staining based flow cytometry analysis (reference value: 0.062%). Type of data set: functional.
Data set [10] deals with AGS. The data set can be described thus: Induction of apoptosis in human AGS cells assessed as viable cells at 0.1 uM incubated for 48 hrs by annexin V-FITC and PI staining based flow cytometry analysis (reference value: 92.0%). Type of data set: functional. Particulars: read-out: Activity.
For data set [11], the system named is AGS. The data set can be described thus: Induction of apoptosis in human AGS cells assessed as early apoptotic cells at 0.1 uM incubated for 48 hrs by annexin V-FITC and PI staining based flow cytometry analysis (reference value: 4.44%). The format is functional.
Data set [12] relates to AGS. The data set can be described thus: Induction of apoptosis in human AGS cells assessed as late apoptotic cells at 0.1 uM incubated for 48 hrs by annexin V-FITC and PI staining based flow cytometry analysis (reference value: 3.15%). The format is functional.
Data set [13] relates to AGS. The data set can be described thus: Induction of apoptosis in human AGS cells assessed as necrotic cells at 0.1 uM incubated for 48 hrs by annexin V-FITC and PI staining based flow cytometry analysis (reference value: 0.44%). The format is functional.
Data set [14] has as its system HGC-27. In words: Antitumor activity against human HGC-27 cells xenografted in male BALB/c nude mouse assessed as tumor growth inhibition at 0.5 mg/kg, ip administered every day for 15 days relative to control. Particulars: HGC-27, 360 h, time 15 day, read-out: TGI. Type of data set: functional. For orientation: Xenograft models place foreign cells or tissue in a host animal.

The nature of data set [15]: Toxicity in male ICR mouse assessed as body weight loss at 2 mg/kg, ip measured after 4 days. Type of data set: organism-based. To be noted: in vivo, 96 h, time 4 day.
Data set [16] is described as follows: Toxicity in male ICR mouse assessed as animal death at 2 mg/kg, ip measured after 4 days. Type of data set: organism-based. To be noted: in vivo, 96 h, time 4 day.
Data set [17] can be described thus: Acute toxicity in male ICR mouse assessed as abnormal hepatocyte morphology at 2 mg/kg, ip measured after 7 days by H and E staining based light microscopic analysis. The format is organism-based. To be noted: in vivo, 168 h, time 7 day.
Data set [18] in a line: Acute toxicity in male ICR mouse assessed as enlarged hepatocyte volume at 2 mg/kg, ip measured after 7 days by H and E staining based light microscopic analysis. Type of data set: organism-based. Particulars: in vivo, 168 h, time 7 day.
Data set [19] is described as follows: Acute toxicity in male ICR mouse assessed as appearance of empty cytoplasm at 2 mg/kg, ip measured after 7 days by H and E staining based light microscopic analysis. The format is organism-based. Particulars: in vivo, 168 h, time 7 day.
Data set [20] in a line: Acute toxicity in male ICR mouse assessed as appearance of bright cytoplasm at 2 mg/kg, ip measured after 7 days by H and E staining based light microscopic analysis. Type of data set: organism-based. Particulars: in vivo, 168 h, time 7 day.
Data set [21] can be described thus: Acute toxicity in male ICR mouse assessed as appearance of unclear cell boundaries at 2 mg/kg, ip measured after 7 days by H and E staining based light microscopic analysis. The format is organism-based. Particulars: in vivo, 168 h, time 7 day.
Data set [22] concerns HGC-27. In words: Induction of autophagy in human HGC-27 cells assessed as increase in LC3 II/LC3 I ratio in tumor tissue at 25 to 100 mg/kg, ip administered daily. The format is functional, organism-based. To be noted: dose 25-100 mg/kg.

The structures appear in SMILES notation. Active and inactive are the calls of the source. No cut-off for these calls is given here.

What is called IC50 is the concentration that gives 50% inhibition. With `CC(C)[C@]12O[C@H]1[C@@H]1O[C@]13[C@]1(O[C@H]1C[C@H]1C4=C(CC[C@@]13C)C(=O)OC4)[C@@H]2O` [TRIPTOLIDE], the IC50 in the data set on HepG2 stood at 0.06 µM; with MCF7, 0.07 µM; in the data set on HCT-116, 0.01 µM; in the data set on U-251, 0.02 µM; with HGC-27 [1], 0.02 µM; in the data set with AGS [2] it was 0.04 µM. Also, the IC50 came to 0.06 µM in the data set on BGC-823, 0.04 µM with SGC-7901, 0.04 µM in the data set with A549 and 0.003 µM in the data set with B16-F10. In addition, the IC50 at 72 h in [3] is 0.04 µM. The selectivity ratio in [4] came out at 1.89; in [5], 1.08. Further, the results for the viability at 0.1 µM in the data set with HGC-27 [6] and with AGS [10] were 48.5% and 10%, respectively. Moreover, the Activity in the data set on HGC-27 [7] stood at 34%; with HGC-27 [8], 17.4%; with HGC-27 [9] it was 0.16%; in the data set with AGS [11], 50.5%; in the data set on AGS [12], 37.9%; in the data set with AGS [13], 1.65%. In addition, the Activity result in [15], in [16], in [17], in [18], in [19] and in data set [20] was “Toxic” throughout. Also, the Activity result in [21] is recorded as “Toxic”. For the same compound, in the data set with HGC-27 [14], the inhibition in vivo at 0.5 mg/kg was 97.2%. In addition, in the data set with HGC-27 [22], the outcome was inactive.
With `CC(C)[C@]12O[C@H]1[C@@H]1O[C@@]13[C@@]1(C)CCC4=C(COC4=S)[C@@H]1C[C@@H]1O[C@@]13C2=O`, the IC50 was 0.63 µM in the data set with HepG2; 1.79 µM in the data set on MCF7; 0.52 µM with HCT-116; 2.43 µM in the data set on U-251; 0.62 µM in the data set on HGC-27 [1]; 1.03 µM with AGS [2]. Moreover, the IC50 in the data set on BGC-823 was 1.33 µM; with SGC-7901, 1.88 µM; in the data set on A549, > 10 µM; with B16-F10 it was 1.03 µM. Further, in data set [3], the IC50 at 72 h stood at 3.35 µM. In addition, the figures for the selectivity ratio in data set [4] and in data set [5] were 5.43 and 3.26, respectively.
Consider `CC(C)[C@]12O[C@H]1[C@@H]1O[C@@]13[C@@]1(C)CCC4=C([C@H](O)OC4=S)[C@@H]1C[C@@H]1O[C@@]13C2=O`, for which the IC50 with HepG2 is > 10 µM; in the data set with MCF7 it was > 10 µM; with HCT-116, 8.53 µM; with U-251, > 10 µM; with HGC-27 [1] it was > 10 µM; with AGS [2], > 10 µM. The IC50 in the data set on BGC-823, in the data set with SGC-7901, in the data set on A549 and in the data set on B16-F10 was > 10 µM in each case.
For the compound `CC(C)[C@]12O[C@H]1[C@@H]1O[C@]13[C@]1(O[C@H]1C[C@H]1C4=C(CC[C@@]13C)C(=S)O[C@H]4O)[C@@H]2O`, the IC50 with HepG2 was > 10 µM; in the data set with MCF7, > 10 µM; with HCT-116 it was 5.59 µM; in the data set with U-251 it was > 10 µM; with HGC-27 [1], > 10 µM; in the data set on AGS [2], > 10 µM. For the same compound, the IC50 in the data set with BGC-823, in the data set with SGC-7901, in the data set on A549 and in the data set on B16-F10 was > 10 µM each time.
For `CC(C)[C@]12O[C@H]1[C@@H]1O[C@]13[C@]1(O[C@H]1C[C@H]1C4=C(CC[C@@]13C)C(=S)O[C@H]4O)[C@H]2O`, the IC50 with HepG2, in the data set on MCF7, with HCT-116, with U-251, in the data set with HGC-27 [1] and with AGS [2] was > 10 µM each time. The IC50 with BGC-823, in the data set on SGC-7901, in the data set on A549 and in the data set with B16-F10 was > 10 µM throughout.
As to `CC(C)[C@]12O[C@H]1[C@@H]1O[C@@]13[C@@]1(C)CCC4=C(COC4=O)[C@@H]1C[C@@H]1O[C@@]13C2=O` [TRIPTONIDE], the IC50 amounted to 0.05 µM in the data set on HepG2; 0.05 µM with MCF7; 0.13 µM in the data set with HCT-116; 0.02 µM in the data set with U-251; 0.1 µM with HGC-27 [1]; 0.05 µM with AGS [2]. Moreover, the IC50 is 0.09 µM with BGC-823, 0.11 µM in the data set on SGC-7901, 0.46 µM with A549 and 0.02 µM in the data set with B16-F10.
In the case of `CC(C)[C@]12O[C@H]1[C@@H]1O[C@]13[C@]1(O[C@H]1C[C@H]1C4=C(CC[C@@]13C)C(=S)OC4)[C@H]2O`, the IC50 in the data set with HepG2 came to 1.87 µM; in the data set on MCF7, 3.04 µM; with HCT-116, 1.34 µM; with U-251, 6.32 µM; with HGC-27 [1] it was 0.7 µM; in the data set on AGS [2] it was 2.58 µM. Also, the IC50 was 3.66 µM with BGC-823, 4.83 µM in the data set with SGC-7901, > 10 µM in the data set on A549 and 1.46 µM in the data set on B16-F10. The IC50 at 72 h in data set [3] stood at 6.91 µM. For the same compound, the selectivity ratio in [4] was 12.2; in [5], 2.68.

These data come from ChEMBL document CHEMBL6114967, “Design and synthesis of novel sulfur-substituted triptolide with the ability to induce autophagy through inhibition of SRSF1 expression” (Eur J Med Chem, 2025).
